Measured values from patent US20040033982A1, “Viral inhibition by n-docosanol” (priority 2001, published 2004).

Tests used:
Assay type in all cases: cell-based
HSV-1(KOS)gL86 = test: Entry of HSV-1(KOS)gL86 into HEp-2 cells (beta-galactosidase, OD600)
Method: After attachment of HEp2 cells to culture wells, n-docosanol-vehicle, vehicle alone, or no agent (control) was added. Five to six hours after infection, the cells were processed, X-gal was added, and the absorbance at 600 nm was determined.
Twenty-four hours before infection, cultured cells were seeded into 24-well (16-mm) plates at 2.5×10^6 cells/well in 0.5 ml cDMEM supplemented with 10% fetal bovine serum (FES). After cell attachment (4-6 h later) heparin, n-docosanol-surfactant, or surfactant alone was added to the cells in 0.5 ml DMEM/10% FES. The agents were dissolved in the medium at two times the desired final concentration. For infection, 0.7 ml of medium was removed from each well and 25 μl of virus suspension was added to the remaining 0.3 ml to give a virus dose of at least 20 p.f.u./cell The plates were rocked at 37° C. for 3 h and then put in a 37° C. […]
At 5-6 h after infection, the cells were fixed with PES containing 2% formaldehyde and 0.2% glutaraldehyde, washed, then permeabilized with 0.02% NP-40, 0.01% deoxycholate and 2 mM MgCl2. […] To quantify the amount of color in each well the glycerol was removed from all wells that were then washed 3× with distilled H2O. DMSO (0.6 ml) was added to solubilize the dye and, after transferring 100 μl of each sample well from the 24-well plate to a 96-well plate, the OD600 was recorded using a 96-well plate reader. […]

HSV-I = test: Binding of [3H]HSV-I to Vero cells; settings: virus at 2 p.f.u./cell; n-docosanol 15 mM
Text: Attachment of HSV-I to specific cell surface receptors is unaffected in n-docosanol-treated cells. Previous studies have verified that attachment of HSV-1 to specific cell surface receptors is unaffected in n-docosanol-treated cells. […] Heparin inhibited this interaction 96%.

wild-type HSV-2 = test: Plaque formation by wild-type HSV-2 in Vero cells; settings: FIG. 7, Panel A
Method: (§1) FIG. 7 depicts data showing that n-docosanol inhibits acyclovir-resistant HSV-2. Vero cells were cultured in 35-mm wells (6×10^5 cells per well) in medium alone (=none) or in the presence of the indicated concentration of acyclovir, n-docosanol-Pluronic F-68 suspension or control suspension (Pluronic F-68 only). The cultures were inoculated 24 hours later with 150 PFU of either wild-type HSV-2 or an acyclovir-resistant laboratory isolate from the wild-type HSV-2 that was plaque purified and passaged in 20 μg/ml acyclovir 44 hours later, the plates were incubated, fixed, stained, and scored for numbers of plaques. The data presented are means of plaques scored from duplicate cultures. The percent inhibition observed in cultures treated with acyclovir or n-docosanol relative to untreated control cultures is denoted in parentheses.

[1] = system: acyclovir-resistant HSV-2; test: Plaque formation by acyclovir-resistant HSV-2 in Vero cells; settings: FIG. 7, Panel B
Method: as §1

Compound | concentration at which inhibition appeared to be complete (HSV-1(KOS)gL86; examined between 1 and 10 μg/ml) [µg/mL] | inhibition of [3H]HSV-I binding (HSV-I) [%] | inhibition of the beta-galactosidase signal (HSV-1(KOS)gL86) | inhibition of plaque formation (wild-type HSV-2) | inhibition of plaque formation [1]
Heparin [reference compound] | 6 | 96 |  |  | 
Nc1nc2c(ncn2COCCO)c(=O)[nH]1 [acyclovir, reference compound] |  |  | not inhibited | inhibit plaque formation by wild type HSV-2 equally | not inhibited
